Reference: ChEMBL document CHEMBL1201862, “PubChem BioAssay data set” (2004)
Calls of active or inactive are those of the source.

Columns and labels:
Cytochrome P450 3A4 = Cytochrome P450 3A4 (Homo sapiens, UniProt P08684); settings: Potency;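 also: confirmatory qHTS run detecting inhibitors and substrates of CYP3A4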
[1] = OVCAR8 cell viability loss – plate reader, dry powder samples, PAX8 project, dose response (AID 743197); type: functional, cell-based; settings: OVCAR-8
[2] = OVCAR-3 cell viability loss – plate reader, dry powder samples, PAX8 inhibitor project, dose response (AID 743044); type: functional, cell-based
[3] = IGROV1 cell killing – plate reader, dry powder samples, PAX8 inhibitor project, dose response (AID 743043); type: functional, cell-based; settings: IGROV-1
Paired box protein Pax-8 = Paired box protein Pax-8 (Homo sapiens, UniProt Q06710); test: PAX8 transcriptional activity inhibition in RMG-I – RMG-I cells, luciferase, cherry-pick, dose response (AID 687027); type: functional, cell-based;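 also: luciferase reporter driven by Pax8 target thyroperoxidase promoter measured by SteadyGlo luminescence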
[4] = P. falciparum Dd2 growth inhibitors, dose response, SYBR Green, cherry-picked samples (AID 1159567); type: functional, cell-based
[5] = blockers of HIV-1 envelope-mediated cell-cell fusion – cherry-pick, dose response (AID 652057); type: functional, cell-based
[6] = HIV-1 AD8 envelope cell-cell fusion blockers – cherry-pick, dose response (AID 652062); type: functional, cell-based;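 also: luciferase signal from cell-cell fusion driven by HIV-1 clade B AD8 Env; potency is for inhibitors of fusion seen as a drop in luminescence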
[7] = blockers of HIV-1 ZM109 envelope-driven cell-cell fusion – HeLa effector, CEM target cells, luciferase, cherry-pick, dose response (AID 652058); type: functional, cell-based;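 also: luciferase signal from HIV-1 Env mediated cell-cell fusion of effector and target cells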
[8] = off-target signal loss in HeLa-CEM21 co-culture – HeLa F-luc CTL cells, cherry-picked, counter-screen for HIV-1 Env fusion inhibitor project, dose response (AID 652040); type: functional, cell-based;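 also: potency for signal decrease marking cytotoxic or nonspecific inhibition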
[9] = THP-1 cell cytotoxicity, dose response, cytotoxicity control for non-replicating M. tuberculosis project (AID 489025); type: functional
cells [10] = type: functional
[11] = microbe, parasite or virus in culture; type: functional; settings: Mycobacterium tuberculosis
[12] = HEK-293T cell viability reduction – luminescence, B-cell screen hits, cytotoxicity control for BCR NF-kB inhibitor project, dose response (AID 489021); type: functional, cell-based;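 also: HEK-293T cells carrying an NF-kB luciferase reporter; cells exposed to compound for about 14 hours before viability readout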
[13] = blockers of bursicon-stimulated LGR2 cAMP reporter – cell-based, HEK293, CRE-luciferase reporter, cherry pick, set 2, dose response (AID 743343); type: functional;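 also: transfected cells were stimulated with diluted bursicon conditioned medium after compound addition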
[14] = A549 cell cytotoxicity, dose response, cytotoxicity control, plate reader, cherry-pick, antagonist series (AID 743412); type: functional, cell-based
[15] = blockade of melanocortin 4 receptor signaling – cell-based, plate reader, cherry pick, counter-screen for LGR2 antagonist project, dose response (AID 743444); type: functional;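 also: transfected HEK 293 cells stimulated with alpha-MSH peptide; potency of inhibitors of the alpha-MSH evoked signal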
BJ [16] = test: BJ-TERT fibroblast viability loss – cell-based, RAS-independent, luminescence, dose response (AID 1933); type: functional; settings: Homo sapiens
BJ [17] = test: BJ-TERT-LT-ST fibroblast viability loss – cell-based, RAS-independent, luminescence, dose response (AID 1935); type: functional; settings: Homo sapiens;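 also: BJ fibroblasts immortalized with TERT plus LT and ST oncogenes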
[18] = DRD fibroblast viability loss – cell-based, non-viral oncogenic, luminescence, dose response (AID 1934); type: functional; settings: Homo sapiens
BJ [19] = test: cells; type: functional, cell-based; settings: Homo sapiens
[20] = target: T1, DNA repair and recombination protein RAD54-like (Homo sapiens, UniProt Q92698); test: RAD54 Holliday junction migration blockers – biochemical, fluorescence, cherry-picked samples, dose series, confirmation (AID 651657); type: functional
T1 sequence (Q92698 whole entry): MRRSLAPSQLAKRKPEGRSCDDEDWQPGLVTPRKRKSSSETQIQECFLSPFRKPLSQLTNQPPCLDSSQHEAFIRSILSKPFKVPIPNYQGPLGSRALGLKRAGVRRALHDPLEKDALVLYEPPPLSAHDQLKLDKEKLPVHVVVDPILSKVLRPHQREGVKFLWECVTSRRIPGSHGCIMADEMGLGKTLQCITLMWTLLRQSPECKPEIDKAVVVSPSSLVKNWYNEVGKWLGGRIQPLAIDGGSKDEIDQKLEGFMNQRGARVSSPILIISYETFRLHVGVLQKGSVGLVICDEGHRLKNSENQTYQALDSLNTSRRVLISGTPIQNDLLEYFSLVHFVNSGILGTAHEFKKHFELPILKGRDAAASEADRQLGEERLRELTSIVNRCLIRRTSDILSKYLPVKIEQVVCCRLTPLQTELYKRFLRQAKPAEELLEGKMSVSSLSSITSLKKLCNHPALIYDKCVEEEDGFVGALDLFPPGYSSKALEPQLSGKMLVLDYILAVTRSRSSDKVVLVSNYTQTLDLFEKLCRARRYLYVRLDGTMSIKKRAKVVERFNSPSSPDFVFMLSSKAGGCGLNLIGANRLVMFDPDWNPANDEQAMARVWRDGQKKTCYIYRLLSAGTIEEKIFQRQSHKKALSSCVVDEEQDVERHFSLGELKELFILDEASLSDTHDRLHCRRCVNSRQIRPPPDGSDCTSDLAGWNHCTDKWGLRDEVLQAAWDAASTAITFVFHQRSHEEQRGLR

cells [21] = type: functional, cell-based
cells [22] = type: functional, cell-based; remark: listed apart in the source
[23] = target: T2, Trace amine-associated receptor 1 (Homo sapiens, UniProt Q96RJ0); test: Counterscreen for agonists of the human trace amine associated receptor 1 (hTAAR1): Fluorescence-based cell-based high throughput dose response assay to identify hTAAR1 agonist that also desensitize TAAR1 receptor response.; type: functional
T2 sequence (Q96RJ0 whole entry): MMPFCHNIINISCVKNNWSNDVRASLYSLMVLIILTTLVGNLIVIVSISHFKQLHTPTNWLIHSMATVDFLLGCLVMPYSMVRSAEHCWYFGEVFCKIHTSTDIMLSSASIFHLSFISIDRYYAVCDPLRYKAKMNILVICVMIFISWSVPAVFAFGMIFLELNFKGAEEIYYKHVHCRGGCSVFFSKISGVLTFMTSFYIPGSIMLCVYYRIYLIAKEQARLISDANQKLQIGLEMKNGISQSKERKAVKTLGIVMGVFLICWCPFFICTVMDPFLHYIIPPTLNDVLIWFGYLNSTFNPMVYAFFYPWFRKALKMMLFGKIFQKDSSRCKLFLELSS

[24] = target: T2, Trace amine-associated receptor 1; test: Fluorescence-based cell-based high throughput dose response assay to identify agonists of the human trace amine associated receptor 1 (TAAR1).; type: functional
[25] = target: T3, Ubiquitin-conjugating enzyme E2 N (Homo sapiens, UniProt P61088); type: functional;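 also: Dose-response confirmation in a TR-FRET assay detecting UBC13-driven polyubiquitin chain formation, inhibition measured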
T3 sequence (P61088 whole entry): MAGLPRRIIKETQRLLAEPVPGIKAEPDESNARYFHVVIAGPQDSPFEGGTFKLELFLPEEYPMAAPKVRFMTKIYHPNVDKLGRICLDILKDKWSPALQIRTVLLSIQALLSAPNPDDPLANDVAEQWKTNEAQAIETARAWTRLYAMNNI

[26] = target: T4, Corticotropin-releasing factor receptor 2/Corticotropin-releasing factor-binding protein (Homo sapiens, UniProt P24387+Q13324); test: activators of CRF receptor 2 with binding protein – uHTS hits, confirmation (AID 602473); type: functional; settings: read-out: EC50_Mean
T4 sequence (Q13324 whole entry): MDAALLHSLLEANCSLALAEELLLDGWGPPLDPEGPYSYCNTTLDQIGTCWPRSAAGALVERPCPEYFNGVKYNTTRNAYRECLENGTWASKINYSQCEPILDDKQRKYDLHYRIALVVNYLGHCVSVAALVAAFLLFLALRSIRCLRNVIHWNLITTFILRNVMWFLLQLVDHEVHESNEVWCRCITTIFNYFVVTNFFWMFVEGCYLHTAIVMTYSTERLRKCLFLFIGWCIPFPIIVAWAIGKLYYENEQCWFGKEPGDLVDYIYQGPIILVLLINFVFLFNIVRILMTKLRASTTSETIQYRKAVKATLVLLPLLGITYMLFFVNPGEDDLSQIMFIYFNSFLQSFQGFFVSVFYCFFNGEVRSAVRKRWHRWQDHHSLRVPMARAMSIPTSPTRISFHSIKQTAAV
T4 sequence (P24387 whole entry): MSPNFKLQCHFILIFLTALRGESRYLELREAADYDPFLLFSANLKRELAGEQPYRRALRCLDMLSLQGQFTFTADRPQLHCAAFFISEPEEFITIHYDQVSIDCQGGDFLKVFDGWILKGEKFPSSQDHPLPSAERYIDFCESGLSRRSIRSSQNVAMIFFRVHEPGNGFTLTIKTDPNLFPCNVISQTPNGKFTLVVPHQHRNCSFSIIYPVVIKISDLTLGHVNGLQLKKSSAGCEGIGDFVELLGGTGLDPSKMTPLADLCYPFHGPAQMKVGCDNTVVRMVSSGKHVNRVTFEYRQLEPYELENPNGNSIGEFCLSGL

[27] = Luminescence Cell-Based Dose Retest to Confirm Inhibitors of Cancer Stem Cells. [Related pubchem assays (depositor defined):AID2717, AID2721]; type: functional; settings: Homo sapiens
[28] = system: Streptococcus sp. 'group A'; test: Streptococcus pyogenes SK(-)GAS viability under kanamycin – luminescence, BacTiterGlo, confirmation, counter-screen for streptokinase expression inhibitor project, dose response (AID 1900); type: functional, organism-based
Streptococcus = test: GAS UMAA2166 growth inhibition – luminescence, BacTiterGlo, counter-screen for streptokinase expression inhibitor project, dose response (AID 1915); type: functional, organism-based;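 also: potency for reduction of bacterial viability or growth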

Sequence of Paired box protein Pax-8 (Q06710 whole entry): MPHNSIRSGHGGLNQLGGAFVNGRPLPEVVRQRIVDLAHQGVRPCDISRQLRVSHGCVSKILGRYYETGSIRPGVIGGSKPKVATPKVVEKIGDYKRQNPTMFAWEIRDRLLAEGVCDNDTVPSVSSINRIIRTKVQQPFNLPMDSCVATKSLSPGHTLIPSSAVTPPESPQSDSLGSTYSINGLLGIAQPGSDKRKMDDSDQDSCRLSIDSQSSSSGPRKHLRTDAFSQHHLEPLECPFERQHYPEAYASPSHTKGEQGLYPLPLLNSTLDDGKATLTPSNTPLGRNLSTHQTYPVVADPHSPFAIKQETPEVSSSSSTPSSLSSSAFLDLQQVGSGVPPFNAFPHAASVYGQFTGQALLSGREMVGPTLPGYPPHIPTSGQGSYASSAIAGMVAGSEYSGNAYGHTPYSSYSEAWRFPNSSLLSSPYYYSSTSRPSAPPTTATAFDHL
Sequence of Cytochrome P450 3A4 (P08684 whole entry): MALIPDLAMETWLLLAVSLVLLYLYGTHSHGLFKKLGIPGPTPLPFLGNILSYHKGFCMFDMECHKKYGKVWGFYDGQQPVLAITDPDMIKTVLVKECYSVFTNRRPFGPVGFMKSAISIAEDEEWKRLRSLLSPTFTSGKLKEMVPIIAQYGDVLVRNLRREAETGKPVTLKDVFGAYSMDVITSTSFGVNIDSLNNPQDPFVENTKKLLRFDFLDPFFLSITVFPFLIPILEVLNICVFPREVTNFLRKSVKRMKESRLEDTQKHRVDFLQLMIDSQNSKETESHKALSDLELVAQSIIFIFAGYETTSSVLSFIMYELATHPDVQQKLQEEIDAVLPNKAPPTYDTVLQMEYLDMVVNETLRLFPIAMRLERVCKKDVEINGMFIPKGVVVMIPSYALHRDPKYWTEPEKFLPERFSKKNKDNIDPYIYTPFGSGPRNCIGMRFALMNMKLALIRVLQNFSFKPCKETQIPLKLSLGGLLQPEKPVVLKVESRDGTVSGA

With `CNC(=O)C1(C)C=CC2(CCCCC2)N1C(C)=O` (stereo not drawn) the AC50 (Cytochrome P450 3A4) was 15.8 µM (inconclusive).
For `C[C@@H]1CN([C@@H](C)CO)C(=O)Cc2cc(N(C)C)ccc2O[C@H]1CN(C)Cc1ccc(C(=O)Nc2ccccc2N)cc1`, the AC50 [1] was > 70 µM (inactive), the AC50 [2] was < 0.26 µM (active) and the AC50 [3] was 45.1 µM (active). The AC50 (Paired box protein Pax-8) was 16.6 µM (active).
For `C[C@H](CO)N1C[C@H](C)[C@@H](CN(C)S(=O)(=O)c2cccc(F)c2)OCc2ccccc2-c2c(n(C)c3ccccc23)C1=O`, the AC50 [1] was > 70 µM (inactive), the AC50 [2] was 43.2 µM (active) and the AC50 [4] was 4.19 µM (active). The AC50 (Paired box protein Pax-8) was 11.1 µM (active).
With `Cc1nnc(SCc2nc3ccccc3c(=O)n2-c2ccccc2Cl)n1N` the AC50 [5] was 4.45 µM (active), the AC50 [6] was 10.2 µM (active) and the AC50 [7] was 4.98 µM (active). The AC50 [8] was 4.79 µM (active).
With `CC(C)N1C(=O)NC(=O)C2(Cc3cc([N+](=O)[O-])ccc3N(C)C2c2ccccc2)C1=O` (stereo not drawn) the CC50 [9] was > 40 µM (active), the IC50 (cells [10]) was 27.3 µM (active) and the CC50 [11] was > 40 µM (active).
With `COC1=CC(=O)OC(CCc2ccccc2)C1` (stereo not drawn) the AC50 (Cytochrome P450 3A4) was 12.6 µM (inconclusive).
For `Cc1cc(OC(=O)c2ccccc2Cl)cc(=O)n1C`, the IC50 [12] was > 80 µM (inactive).
In the case of `COCCOc1cc(NCc2ccccc2)c2ncn(C(C)C)c2c1`, the AC50 [13] was 12 µM (active), the AC50 [14] was 44.3 µM (active) and the AC50 [15] was 17.9 µM (active).
In the case of `CCc1ccc(CN(C(=O)COc2c(C)cccc2C)C2CCS(=O)(=O)C2)cc1` (stereo not drawn), the EC50 (BJ [16]) was > 150 µM (not active), the EC50 (BJ [17]) was > 150 µM (inconclusive) and the EC50 [18] was > 150 µM (not active). For the same compound, the EC50 (BJ [19]) was > 150 µM (not active).
With `c1ccc(-c2nc(NCCCn3ccnc3)c3oc4ccccc4c3n2)cc1` the AC50 [20] was 100 µM (inactive).
In the case of `COc1cccc(OC)c1C(=O)NCCc1ccccc1`, the EC50 (cells [21]) was > 29.9 µM (inactive), the IC50 (cells [22]) was > 29.9 µM (inactive) and the IC50 [23] was 9.6 µM (active). The EC50 [24] was 2.64 µM (active).
For `CCN(CC)CCNC(=O)c1cc2c(=O)n(C)c3ccccc3c2s1`, the IC50 [25] was > 20 µM (inactive) and the AC50 [20] was 19.6 µM (active).
For `O=C(Nc1nnc(-c2ccc(Cl)cc2)o1)c1nc2ccccc2s1`, the EC50 [26] was 2.26 µM (active), the CC50 [9] was > 40 µM (active) and the IC50 (cells [10]) was 1.5 µM (active). The AC50 [27] was 3.56 µM (active), the EC50 [28] was 0.289 µM (active) and the EC50 (Streptococcus) was 0.936 µM (active).
